Each structure is given as a SMILES string. Where a SMILES comes first, the peptide text is derived from it. Bridges are numbered along the chain shown (N, C = ends). [ ]: non-standard residue; d: D form. Hyp = O=C(O)[C@@H]1C[C@@H](O)CN1

Common to all, as to assay: cell-based
Assay [1] addresses T1, human α6/α3β2β3 nAChR (Homo sapiens, UniProt P17787+P32297+Q05901+Q15825).
T1 construct: expressed in transfected cells; host or cells: Xenopus laevis oocytes (cRNA injection, 1:1 ratio)

Assay [2] has as its target T2, human α6/α3β4 nAChR (Homo sapiens, UniProt P30926+P32297+Q15825).
T2 construct: expressed in transfected cells; host or cells: Xenopus laevis oocytes (cRNA injection, 1:1 ratio)

Assay [3] addresses T3, human α3β4 nAChR (Homo sapiens, UniProt P30926+P32297).
T3 construct: expressed in transfected cells; host or cells: Xenopus laevis oocytes (cRNA injection, 1:1 ratio)

T2 sequence (P30926 whole entry, looked up): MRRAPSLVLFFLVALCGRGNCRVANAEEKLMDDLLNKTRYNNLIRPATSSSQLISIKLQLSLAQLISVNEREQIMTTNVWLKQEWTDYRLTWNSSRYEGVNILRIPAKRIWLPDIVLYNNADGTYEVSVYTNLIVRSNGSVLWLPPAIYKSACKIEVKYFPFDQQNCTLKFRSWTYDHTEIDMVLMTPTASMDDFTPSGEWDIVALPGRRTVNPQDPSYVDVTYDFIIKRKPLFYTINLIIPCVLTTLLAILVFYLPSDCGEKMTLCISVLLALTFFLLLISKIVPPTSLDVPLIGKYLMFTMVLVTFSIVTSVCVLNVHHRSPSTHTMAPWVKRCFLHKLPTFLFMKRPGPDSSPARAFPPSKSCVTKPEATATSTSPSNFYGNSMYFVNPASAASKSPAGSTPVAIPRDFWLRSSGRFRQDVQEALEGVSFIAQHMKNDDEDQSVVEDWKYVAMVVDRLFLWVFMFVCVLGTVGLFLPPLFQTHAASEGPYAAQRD
T2 sequence (P32297 whole entry, looked up): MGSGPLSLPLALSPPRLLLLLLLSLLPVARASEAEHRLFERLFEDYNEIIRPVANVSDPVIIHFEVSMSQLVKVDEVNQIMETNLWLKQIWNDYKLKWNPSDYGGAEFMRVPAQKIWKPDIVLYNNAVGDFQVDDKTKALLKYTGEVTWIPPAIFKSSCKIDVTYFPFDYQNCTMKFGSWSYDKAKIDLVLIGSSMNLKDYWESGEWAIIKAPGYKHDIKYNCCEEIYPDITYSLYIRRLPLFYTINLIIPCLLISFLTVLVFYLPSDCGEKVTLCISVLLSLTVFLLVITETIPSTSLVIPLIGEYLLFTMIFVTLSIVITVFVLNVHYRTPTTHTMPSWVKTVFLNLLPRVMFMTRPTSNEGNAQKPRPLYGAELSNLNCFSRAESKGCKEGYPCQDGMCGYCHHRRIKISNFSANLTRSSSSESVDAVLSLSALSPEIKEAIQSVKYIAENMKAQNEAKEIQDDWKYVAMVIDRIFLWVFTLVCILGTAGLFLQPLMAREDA
T2 sequence (Q15825 whole entry, looked up): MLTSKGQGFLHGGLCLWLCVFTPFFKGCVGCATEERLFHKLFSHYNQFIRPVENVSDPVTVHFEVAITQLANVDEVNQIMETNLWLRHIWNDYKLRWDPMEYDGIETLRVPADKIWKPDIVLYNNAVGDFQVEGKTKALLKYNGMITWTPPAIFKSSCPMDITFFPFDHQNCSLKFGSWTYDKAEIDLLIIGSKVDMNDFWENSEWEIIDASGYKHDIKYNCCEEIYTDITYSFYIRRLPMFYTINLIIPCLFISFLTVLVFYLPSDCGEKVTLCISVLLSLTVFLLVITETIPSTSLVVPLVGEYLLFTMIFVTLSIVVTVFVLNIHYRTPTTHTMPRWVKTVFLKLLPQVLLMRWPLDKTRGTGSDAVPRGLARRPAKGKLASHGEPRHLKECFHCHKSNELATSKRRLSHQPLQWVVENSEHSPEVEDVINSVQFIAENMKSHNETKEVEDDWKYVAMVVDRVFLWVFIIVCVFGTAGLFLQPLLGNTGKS
T3 sequence (P32297 32-505 limits assumed): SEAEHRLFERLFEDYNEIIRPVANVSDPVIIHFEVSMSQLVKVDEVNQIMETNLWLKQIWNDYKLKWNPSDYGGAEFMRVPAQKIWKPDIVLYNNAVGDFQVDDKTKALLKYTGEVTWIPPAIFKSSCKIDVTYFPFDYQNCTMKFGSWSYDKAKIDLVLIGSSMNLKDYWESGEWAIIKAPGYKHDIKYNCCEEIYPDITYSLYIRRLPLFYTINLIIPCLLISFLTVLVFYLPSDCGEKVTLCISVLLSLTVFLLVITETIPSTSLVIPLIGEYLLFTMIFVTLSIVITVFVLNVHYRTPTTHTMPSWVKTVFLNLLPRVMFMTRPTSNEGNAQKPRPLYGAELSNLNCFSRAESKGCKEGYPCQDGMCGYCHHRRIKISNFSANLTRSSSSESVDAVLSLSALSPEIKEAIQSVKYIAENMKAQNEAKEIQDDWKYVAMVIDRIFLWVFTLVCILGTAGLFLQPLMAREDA
T3 sequence (P30926 22-498 limits assumed): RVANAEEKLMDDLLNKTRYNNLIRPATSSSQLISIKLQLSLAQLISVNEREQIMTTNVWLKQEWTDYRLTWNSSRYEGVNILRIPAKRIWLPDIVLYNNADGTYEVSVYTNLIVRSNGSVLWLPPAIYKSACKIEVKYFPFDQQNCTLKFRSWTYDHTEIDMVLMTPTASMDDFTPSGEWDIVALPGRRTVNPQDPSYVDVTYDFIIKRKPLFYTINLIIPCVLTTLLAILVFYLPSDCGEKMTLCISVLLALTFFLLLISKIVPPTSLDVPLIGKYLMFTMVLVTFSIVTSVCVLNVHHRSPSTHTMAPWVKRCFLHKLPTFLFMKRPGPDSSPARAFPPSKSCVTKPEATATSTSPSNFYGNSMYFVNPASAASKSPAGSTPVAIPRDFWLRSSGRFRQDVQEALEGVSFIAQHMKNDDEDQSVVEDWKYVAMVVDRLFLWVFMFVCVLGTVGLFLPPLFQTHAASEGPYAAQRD
T1 sequence (P17787 whole entry, looked up): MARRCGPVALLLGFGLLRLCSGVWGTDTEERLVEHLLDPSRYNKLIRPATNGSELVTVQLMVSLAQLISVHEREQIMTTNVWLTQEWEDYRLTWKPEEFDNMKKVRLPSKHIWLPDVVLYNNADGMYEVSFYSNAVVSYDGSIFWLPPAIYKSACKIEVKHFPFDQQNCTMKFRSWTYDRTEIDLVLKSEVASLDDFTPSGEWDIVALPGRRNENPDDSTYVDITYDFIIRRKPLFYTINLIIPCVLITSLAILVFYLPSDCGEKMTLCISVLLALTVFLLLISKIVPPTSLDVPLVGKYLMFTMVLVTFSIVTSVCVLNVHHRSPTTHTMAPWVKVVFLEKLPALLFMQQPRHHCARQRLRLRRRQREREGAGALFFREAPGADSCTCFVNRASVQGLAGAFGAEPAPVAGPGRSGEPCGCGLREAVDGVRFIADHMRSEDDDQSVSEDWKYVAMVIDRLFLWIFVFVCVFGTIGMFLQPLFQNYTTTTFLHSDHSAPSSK
T1 sequence (P32297 whole entry, looked up): as the sequence (P32297 whole entry, looked up) above
T1 sequence (Q05901 whole entry, looked up): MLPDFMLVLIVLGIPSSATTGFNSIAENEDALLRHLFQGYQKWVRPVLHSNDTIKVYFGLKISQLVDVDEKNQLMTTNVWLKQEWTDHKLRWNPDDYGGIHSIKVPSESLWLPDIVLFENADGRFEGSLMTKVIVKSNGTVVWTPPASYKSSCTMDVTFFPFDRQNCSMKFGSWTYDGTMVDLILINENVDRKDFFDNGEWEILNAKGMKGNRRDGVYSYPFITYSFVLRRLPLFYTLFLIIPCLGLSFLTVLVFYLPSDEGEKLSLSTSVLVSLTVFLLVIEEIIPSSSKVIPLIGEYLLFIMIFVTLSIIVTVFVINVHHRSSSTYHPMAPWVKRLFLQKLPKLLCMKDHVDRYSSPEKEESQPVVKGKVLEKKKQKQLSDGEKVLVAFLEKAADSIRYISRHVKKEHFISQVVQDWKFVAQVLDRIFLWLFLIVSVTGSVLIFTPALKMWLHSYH
T1 sequence (Q15825 whole entry, looked up): as the sequence (Q15825 whole entry, looked up) above

As usually defined, the IC50 is the concentration that inhibits the measured activity by half. Lower therefore signals higher potency. As to `CC(C)C[C@@H]1NC(=O)[C@H](C(C)C)NC(=O)[C@H](C)NC(=O)[C@@H]2CSSC[C@H](NC(=O)CN)C(=O)N[C@@H](CSSC[C@@H](C(N)=O)NC(=O)[C@H](Cc3ccc(O)cc3)NC1=O)C(=O)N[C@@H](CO)C(=O)N[C@@H](C)C(=O)N1C[C@H](O)C[C@H]1C(=O)N1CCC[C@H]1C(=O)N2` [BuIA[T5A,P6O]] (H-GCCSA[Hyp]PCAVLYC-NH2; disulfide 2-8, 3-13), in assay [1], the 50% inhibitory concentration (IC50) was greater than 10000 nM. In assay [2], the IC50 came out at 11.1 nM and the “fold selectivity, α6/α3β4 over α6/α3β2β3 (IC50 ratio)” value is greater than 900 fold.

Turning to `CC(C)C[C@@H]1NC(=O)[C@H](C)NC(=O)[C@@H]2CSSC[C@H](NC(=O)CN)C(=O)N[C@@H](CSSC[C@@H](C(N)=O)NC(=O)[C@H](C)NC(=O)[C@H](CC(N)=O)NC(=O)[C@H](CO)NC(=O)[C@H](Cc3cnc[nH]3)NC(=O)[C@H](CCC(=O)O)NC1=O)C(=O)N[C@@H](CO)C(=O)N[C@@H](CC(N)=O)C(=O)N1CCC[C@H]1C(=O)N[C@@H](C(C)C)C(=O)N2` [MII[H9A,L15A]] (H-GCCSNPVCALEHSNAC-NH2; disulfide 2-8, 3-16), the IC50 in assay [2] was 13.3 nM; in assay [3], 1400 nM.
